The values that follow are results of earlier work, collected in paper PMC11768433 (Viruses, 2024).

One data set relates to HSV-2. The arrangement: method as in Ref.35216177. Particulars: HSV-2 replication, Vero cells; ref Ref.35216177.
Data set [1] concerns Vero cells. Details: method as in Ref.35216177. Particulars: ref Ref.35216177.
The test system of a further data set is HCoV-OC43. Details: method as in Ref.35216177. Particulars: HCoV-OC43 replication, Vero cells; ref Ref.35216177.
A further data set concerns HSV-1. The arrangement: method as in Ref.35216177. Particulars: HSV-1 replication, Vero cells; ref Ref.35216177.
The next data set concerns HCoV-229E. Details: method as in Ref.35216177. Particulars: HCoV-229E replication, Vero cells; ref Ref.35216177.
The subject of another data set is SARS-CoV-2. The arrangement: method as in Ref.35216177. Particulars: SARS-CoV-2 replication, Vero cells; ref Ref.35216177.
The next data set deals with P4 cells. The arrangement: method as in Ref.12054767. Particulars: MTT assay, peptide concentrations higher than 100 μM, ref Ref.12054767. In general terms: Tetrazolium dyes change colour on reduction, which living cells bring about.
Data set [2] deals with Feline immunodeficiency virus (FIV). Particulars: FIV replication, CrFK cells, at 16 µg/ml; ref Ref.8661378.
The subject of a further data set is P4-CCR5 cells. Details: method as in Ref.17448989. Particulars: up to 1000 µM, ref Ref.17448989.
For another data set, the system named is PBMC. Particulars: PBMC; ref Ref.30089693.
The test system of the next data set is TZM-bl cell. Details: method as in Ref.30089693. Particulars: ref Ref.30089693.
Data set [3] relates to Human parainfluenza viruse 3(HPIV 3). The arrangement: method as in Ref.28344321. Particulars: HPIV 3 infection, Vero cells; ref Ref.28344321.
Data set [4] has as its system Vero cells. Details: method as in Ref.28344321. Particulars: ref Ref.28344321.
The subject of data set [5] is influenza virus(H1N1,VR-1894). The arrangement: method as in Ref.35216177. Particulars: influenza H1N1 VR-1894 replication, MDKC cells; ref Ref.35216177.

Read-outs that look alike come from different tables or passages of the source. Where only a bound is given, the exact number is not on record here.

Consider “FVPWFSKFlWRIL [DRAVPe00385, DRAVP database entry, TL peptide]”, for which the IC90 (as a rule, the point of the concentration-response curve where the effect stands at 90%) with HSV-2 was 12.5 µM; in the data set with HCoV-OC43, 24.2 µM; with HSV-1, 8.25 µM; in the data set on HCoV-229E it was 50 µM; in the data set on SARS-CoV-2, 27.7 µM. Moreover, in the data set on Vero cells [1], the CC50 is 35.47 µM.
Turning to “YQLLIRMIYANI [DRAVPe00104, DRAVP database peptide, target HIV-1 integrase]”, the “decrease of cell viability” value with P4 cells was roughly 5%.
As for “YLDRVDTWLQGKINISLCLT [DRAVPe00846, DRAVP database peptide, target FIV]”, the inhibition (commonly the drop in the measured response relative to a control, in per cent) in data set [2] was 9%.
As for LEAIPMSIPPEFLFGKPFVF [DRAVPe00223], in the data set with P4-CCR5 cells, the “cytotoxicity” value was “[Ref.17448989]No cytotoxicity against P4-CCR5 cells up tp 1000 µM”.
On to LEAIPMSIPPEVKFNKPFVF [DRAVPe00192], for which the “cytotoxicity” value with P4-CCR5 cells is “[Ref.17448989]No cytotoxicity against P4-CCR5 cells up tp 1000 µM”.
For the substance “WEQKIEELLKKAEEQQKKNEEELKKLEX [DRAVPe00785]”, the CC50 with PBMC was 114.8 µM; in the data set with TZM-bl cell it was 112.9 µM.
As to “PACQDFLGAMIHLKAKTNISIR [DRAVPe00840, DRAVP database peptide, target FIV]”, the inhibition in data set [2] is 28%.
Consider “XGSGSGVALDPIDIAnti-SIVLNKAKSDLEESKEWIRRSNGKLDSI [DRAVPe01796]”, for which, in data set [3], the IC90 was 0.0001 ± 1e-07 µM. Moreover, the CC50 result with Vero cells [4] is “[Ref.28344321]Vero cells: CC50>10000 nM”.
“CFVPWFSKFlXRIL [DRAVPe00391, DRAVP database entry, TL peptide]”: the CC50 result in the data set on Vero cells [1] was “[Ref.35216177]Vero cells:CC50>100.00 μM”. For the same substance, the concentration for an effect of 90% (IC90) in the data set on HSV-1 is 2.19 µM; in [5], 5.89 µM; in the data set on SARS-CoV-2 it was 1.89 µM.
On to “CGGFVPWFSKFlXRIL [DRAVPe00392, DRAVP database entry, TL peptide]”, for which, in the data set with Vero cells [1], the CC50 entry was “[Ref.35216177]Vero cells:CC50>100.00 μM”. In addition, the values for the IC90 (in the data set with HSV-1; in [5]; with SARS-CoV-2) were 8.21 µM, 9.9 µM and 10.2 µM, respectively.
With LEAIPMGIPpEVXFNKPFVF [DRAVPe00228], the “cytotoxicity” value in the data set on P4-CCR5 cells is “[Ref.17448989]No cytotoxicity against P4-CCR5 cells up tp 1000 µM”.
As for “VALDPIDIAnti-SIVLNKAKSDLEESKEWIRRSNGKLDSIGSGSGC [DRAVPe01791]”, the IC90 in data set [3] is 0.28 ± 0.247 µM. In addition, the CC50 result in the data set on Vero cells [4] was “[Ref.28344321]Vero cells: CC50>10000 nM”.
LEAIPCSIPPCVFFNKPFVF [DRAVPe00221]: the “cytotoxicity” value in the data set on P4-CCR5 cells is “[Ref.17448989]No cytotoxicity against P4-CCR5 cells up tp 1000 µM”.
On to “FVPWFSKFlpRIL [DRAVPe00379, DRAVP database entry, TL peptide]”, for which the CC50 entry with Vero cells [1] was “[Ref.35216177]Vero cells:CC50>100 μM”.
Take “YQLLIRPIYKNI [DRAVPe00110, DRAVP database peptide, target HIV-1 integrase]”: in the data set on P4 cells, the “decrease of cell viability” value is given as roughly 5%.
With “LEANIEELLKKAEEQQKKNEEELKKLEX [DRAVPe00784]”, the CC50 is 46.83 µM with PBMC and 434.03 µM in the data set on TZM-bl cell.
As for “LKAKTNISIREGPTLGNWAR [DRAVPe00841, DRAVP database peptide, target FIV]”, in data set [2], the inhibition is 24%.
“FVPWFSKFlGRIL [DRAVPe00377, DRAVP database entry, TL peptide]”: the IC90 in the data set on HSV-2 was 16.7 µM; with HCoV-OC43, 15 µM; with HSV-1, 18.7 µM; with HCoV-229E, 30.1 µM; with SARS-CoV-2, 12.1 µM. Further, in the data set on Vero cells [1], the CC50 is 42.18 µM.
Turning to “FVPWFSKFlXRILGGC [DRAVPe00390, DRAVP database entry, TL peptide]”, the CC50 entry with Vero cells [1] is “[Ref.35216177]Vero cells:CC50>100.00 μM”. The IC90 was 48 µM in the data set with HSV-1, 49.9 µM in [5] and 50 µM in the data set with SARS-CoV-2.
Take “FVQWFSKFLGRIL [DRAVPe00376, DRAVP database entry, TL peptide]”: the values for the 90% effect concentration (IC90) in the data set on HSV-2 and with HSV-1 were 16 µM and 15.7 µM, respectively. For the same substance, the CC50 in the data set on Vero cells [1] was 19.61 µM.
For the substance “LSELDDRADALQAGASQFETSAAKLKRKYWWKN [DRAVPe00111, DRAVP database peptide, target HIV-1 integrase]”, in the data set on P4 cells, the “decrease of cell viability” value is roughly 5%.
As for “FVPWFSKFlwRIL [DRAVPe00386, DRAVP database entry, TL peptide]”, the IC90 is 9.76 µM in the data set on HSV-2; 17.4 µM with HCoV-OC43; 7.89 µM with HSV-1; 50 µM with HCoV-229E; 14.8 µM in the data set with SARS-CoV-2. Also, in the data set on Vero cells [1], the CC50 is 24.12 µM.
Consider KVINPEPIVEPFMSKPFALF [DRAVPe00230], for which, in the data set with P4-CCR5 cells, the “cytotoxicity” value was “[Ref.17448989]No cytotoxicity against P4-CCR5 cells up tp 1000 µM”.
Turning to “FVPWFSKFlxRIL [DRAVPe00382, DRAVP database entry, TL peptide]”, the IC90 with HSV-2 was 11.9 µM; with HCoV-OC43 it was 24.7 µM; in the data set on HSV-1, 12.8 µM; in the data set on HCoV-229E it was greater than 50 µM; in the data set on SARS-CoV-2, 17.4 µM. In addition, the CC50 with Vero cells [1] is 32.16 µM.
As for “FVPWFSKFlXRIL [DRAVPe00380, DRAVP database entry, TL peptide]”, the 90% effect concentration (IC90) in the data set with HSV-2 was 19 µM; in the data set with HCoV-OC43, 27.7 µM; in the data set with HSV-1, 15.9 µM; in the data set with HCoV-229E it was greater than 50 µM; in the data set on SARS-CoV-2, 25 µM. In addition, the CC50 in the data set on Vero cells [1] is 60.90 µM.
In the case of “QLLIRMIYKNI [DRAVPe00109, DRAVP database peptide, target HIV-1 integrase]”, the “decrease of cell viability” value with P4 cells is given as roughly 5%.
As to “FVPWFSKFlXRIL [DRAVPe00396, DRAVP database entry, TL peptide]”, in the data set with Vero cells [1], the CC50 result is “[Ref.35216177]Vero cells:CC50>100.00 μM”. The IC90 with HSV-1 was 4.96 µM; in data set [5] it was 7.11 µM; in the data set with SARS-CoV-2, 6.96 µM.
As for LEAIPCSIPpCFLFNKPFVF [DRAVPe00227], in the data set on P4-CCR5 cells, the “cytotoxicity” value is “[Ref.17448989]No cytotoxicity against P4-CCR5 cells up tp 1000 µM”.
Regarding “FVPWFSKFlXRILC [DRAVPe00389, DRAVP database entry, TL peptide]”, the CC50 result in the data set with Vero cells [1] is “[Ref.35216177]Vero cells:CC50>100.00 μM”. In addition, the IC90 was 11.1 µM with HSV-1, 10 µM in data set [5] and 12 µM with SARS-CoV-2.
Take “YQALIRMIYKNI [DRAVPe00097, DRAVP database peptide, target HIV-1 integrase]”: the “decrease of cell viability” value with P4 cells is on record as roughly 5%.
In the case of LEAIPCSIPPCFAFNKPFVF [DRAVPe00222], the “cytotoxicity” value in the data set with P4-CCR5 cells is “[Ref.17448989]No cytotoxicity against P4-CCR5 cells up tp 1000 µM”.
On to “FVPWFSKFlPRIL [DRAVPe00378, DRAVP database entry, TL peptide]”, for which the IC90 with HSV-2 is 19.2 µM; in the data set with HCoV-OC43 it was 24.1 µM; in the data set with HSV-1, 18.8 µM; in the data set with SARS-CoV-2 it was 14 µM. Moreover, the CC50 in the data set on Vero cells [1] is 56.52 µM.
Regarding “QLLIRMIYKNILFYLVPGPGHGAEPERRNIKYL [DRAVPe00090, DRAVP database peptide, target HIV-1 integrase]”, the “decrease of cell viability” value with P4 cells was roughly 5%.
Consider “LFYLVPGPGH [DRAVPe00094, DRAVP database peptide, target HIV-1 integrase]”, for which the “decrease of cell viability” value in the data set with P4 cells was roughly 5%.
Turning to IEELLKKAEEQQKKNEEELKKLEX [DRAVPe00660], the CC50 was 49.95 ± 2.97 µM in the data set with PBMC and 256.23 µM in the data set on TZM-bl cell.
Regarding “YQLAIRMIYKNI [DRAVPe00098, DRAVP database peptide, target HIV-1 integrase]”, the “decrease of cell viability” value with P4 cells is listed as roughly 5%.
